Holding throughout (format): in vivo
In assay [1] the test system is Digitaria sanguinalis (DIGSA). In words: Test Example 1 post-emergence herbicidal activity. As to conditions: rate 125 g/ha, evaluated 15 days later; for pest or weed control at 125 g/ha: 360 h, read-out: Post-emergence activity DIGSA (100=total damage to plant; 0=no damage to plant). An outline of the steps: (§1)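 Pots sown in standard soil were sprayed 1 day (pre-emergence) or 10 days (post-emergence) after sowing with an aqueous spray from an acetone/Emulsogen EL/N-methylpyrrolidone-based formulation. Visual damage was scored 20 days (pre) or 15 days (post) later in the greenhouse, 0 = none to 100 = total.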

Assay [2] relates to Avena fatua (AVEFA). The experiment in a line: Test Example 1 post-emergence herbicidal activity. Particulars: rate 125 g/ha, evaluated 15 days later; for pest or weed control at 125 g/ha: 360 h, read-out: Post-emergence activity AVEFA (100=total damage to plant; 0=no damage to plant). An outline of the steps: as §1
The test system of assay [3] is Echinochloa crus-galli (ECHCG). In words: Test Example 1 post-emergence herbicidal activity. Particulars: rate 125 g/ha, evaluated 15 days later; for pest or weed control at 125 g/ha: 360 h, read-out: Post-emergence activity ECHCG (100=total damage to plant; 0=no damage to plant). The procedure, abridged:
as §1

In assay [4] the test system is Alopecurus myosuroides (ALOMY). In words: Test Example 1 post-emergence herbicidal activity. As to conditions: rate 125 g/ha, evaluated 15 days later; for pest or weed control at 125 g/ha: 360 h, read-out: Post-emergence activity ALOMY (100=total damage to plant; 0=no damage to plant). The procedure, abridged:
as §1

For assay [5], the system named is Setaria faberi (SETFA). The experiment in a line: Test Example 1 post-emergence herbicidal activity. As to conditions: rate 125 g/ha, evaluated 15 days later; for pest or weed control at 125 g/ha: 360 h, read-out: Post-emergence activity SETFA (100=total damage to plant; 0=no damage to plant). An outline of the steps: as §1
Assay [6] deals with Lolium perenne (LOLPE). In words: Test Example 1 post-emergence herbicidal activity. As to conditions: rate 125 g/ha, evaluated 15 days later; for pest or weed control at 125 g/ha: 360 h, read-out: Post-emergence activity LOLPE (100=total damage to plant; 0=no damage to plant). The procedure, abridged: as §1
In assay [7] the test system is Digitaria sanguinalis (DIGSA). The experiment in a line: Test Example 1 pre-emergence herbicidal activity. Particulars: rate 250 g/ha, evaluated 20 days later; for pest or weed control at 250 g/ha: Digitaria sanguinalis, 480 h, read-out: Pre-emergence activity DIGSA (100=total damage to plant; 0=no damage to plant). An outline of the steps:
as §1

The test system of assay [8] is Avena fatua (AVEFA). In words: Test Example 1 pre-emergence herbicidal activity. Particulars: rate 250 g/ha, evaluated 20 days later; for pest or weed control at 250 g/ha: Avena fatua, 480 h, read-out: Pre-emergence activity AVEFA (100=total damage to plant; 0=no damage to plant). The procedure, abridged:
as §1

For assay [9], the system named is Echinochloa crus-galli (ECHCG). In words: Test Example 1 pre-emergence herbicidal activity. Particulars: rate 250 g/ha, evaluated 20 days later; for pest or weed control at 250 g/ha: Echinochloa crus-galli, 480 h, read-out: Pre-emergence activity ECHCG (100=total damage to plant; 0=no damage to plant). The procedure, abridged: as §1
The test system of assay [10] is Alopecurus myosuroides (ALOMY). The experiment in a line: Test Example 1 pre-emergence herbicidal activity. As to conditions: rate 250 g/ha, evaluated 20 days later; for pest or weed control at 250 g/ha: Alopecurus myosuroides, 480 h, read-out: Pre-emergence activity ALOMY (100=total damage to plant; 0=no damage to plant). An outline of the steps: as §1
In assay [11] the test system is Setaria faberi (SETFA). The experiment in a line: Test Example 1 pre-emergence herbicidal activity. As to conditions: rate 250 g/ha, evaluated 20 days later; for pest or weed control at 250 g/ha: Setaria faberi, 480 h, read-out: Pre-emergence activity SETFA (100=total damage to plant; 0=no damage to plant). The procedure, abridged: as §1
Assay [12] relates to Lolium perenne (LOLPE). In words: Test Example 1 pre-emergence herbicidal activity. Particulars: rate 250 g/ha, evaluated 20 days later; for pest or weed control at 250 g/ha: Lolium perenne, 480 h, read-out: Pre-emergence activity LOLPE (100=total damage to plant; 0=no damage to plant). An outline of the steps:
as §1

In the case of `CC[C@]12C=C[C@H](O1)[C@@H]1C(=O)C(c3c(C)cc(C)cc3C)=C(O)[C@@H]12` [Example T40], the pest or weed control at 125 g/ha in assay [1] amounted to 70%; with Avena fatua (AVEFA) [2], 30%; in assay [3], 70%; in assay [4], 40%; in the assay on Setaria faberi (SETFA) [5] it was 70%; with Lolium perenne (LOLPE) [6], 30%. Further, the pest or weed control at 250 g/ha in assay [7] stood at 60%; in the assay with Avena fatua (AVEFA) [8], 60%; in assay [9], 40%; in assay [10] it was 50%; with Setaria faberi (SETFA) [11], 40%; in the assay on Lolium perenne (LOLPE) [12] it was 60%.
Consider `Cc1cc(C)c(C2=C(O)[C@@H]3[C@@H]4O[C@@H]([C@H](Br)[C@H]4Br)[C@@H]3C2=O)c(C)c1` [Example T46], for which the pest or weed control at 125 g/ha in [1] was found to be 0%; in the assay on Avena fatua (AVEFA) [2], 0%; in assay [3] it was 80%; in assay [4], 0%; in the assay with Setaria faberi (SETFA) [5] it was 60%; in the assay on Lolium perenne (LOLPE) [6], 0%. In addition, the pest or weed control at 250 g/ha came out at 20% in [7]; 0% in the assay on Avena fatua (AVEFA) [8]; 70% in assay [9]; 10% in [10]; 30% in the assay with Setaria faberi (SETFA) [11]; 30% in the assay with Lolium perenne (LOLPE) [12].
In the case of `COC[C@H]1C[C@@H]2O[C@H]1[C@H]1C(O)=C(c3c(C)cc(C)cc3C)C(=O)[C@H]12` [Example T47], the pest or weed control at 125 g/ha came to 60% in [1]; 90% in the assay with Avena fatua (AVEFA) [2]; 100% in assay [3]; 100% in assay [4]; 70% in the assay on Setaria faberi (SETFA) [5]; 90% in the assay on Lolium perenne (LOLPE) [6]. Also, the pest or weed control at 250 g/ha was determined as 70% in assay [7]; 80% in the assay on Avena fatua (AVEFA) [8]; 100% in [9]; 100% in assay [10]; 80% in the assay on Setaria faberi (SETFA) [11]; 100% in the assay with Lolium perenne (LOLPE) [12].
Take `Cc1cc(C)c(C2=C(O)[C@H]3[C@@H](C2=O)[C@@H]2CC[C@@]3(C)O2)c(C)c1` [Example T48]: the “Post-emergence activity DIGSA (100=total damage to plant; 0=no damage to plant)” value in [1] amounted to 100. Further, in the assay on Avena fatua (AVEFA) [2], the “Post-emergence activity AVEFA (100=total damage to plant; 0=no damage to plant)” value is reported as 70. Also, the “Post-emergence activity ECHCG (100=total damage to plant; 0=no damage to plant)” value in assay [3] is 100. Also, in assay [4], the “Post-emergence activity ALOMY (100=total damage to plant; 0=no damage to plant)” value is listed as 80. Further, the “Post-emergence activity SETFA (100=total damage to plant; 0=no damage to plant)” value in the assay on Setaria faberi (SETFA) [5] was 90. In the assay on Lolium perenne (LOLPE) [6], the “Post-emergence activity LOLPE (100=total damage to plant; 0=no damage to plant)” value came to 70. Moreover, in assay [7], the “Pre-emergence activity DIGSA (100=total damage to plant; 0=no damage to plant)” value is 100. In the assay on Avena fatua (AVEFA) [8], the “Pre-emergence activity AVEFA (100=total damage to plant; 0=no damage to plant)” value amounted to 80. Moreover, the “Pre-emergence activity ECHCG (100=total damage to plant; 0=no damage to plant)” value in [9] is recorded as 100. Besides, the “Pre-emergence activity ALOMY (100=total damage to plant; 0=no damage to plant)” value in [10] amounted to 100. Also, the “Pre-emergence activity SETFA (100=total damage to plant; 0=no damage to plant)” value with Setaria faberi (SETFA) [11] is recorded as 100. Moreover, the “Pre-emergence activity LOLPE (100=total damage to plant; 0=no damage to plant)” value with Lolium perenne (LOLPE) [12] is 100.
For the compound `Cc1cc(C)c(C2=C(O)[C@H]3[C@@H](C2=O)[C@@H]2CC[C@@]3(CO)O2)c(C)c1` [Example T49], the pest or weed control at 125 g/ha in [1] came out at 70%; in the assay with Avena fatua (AVEFA) [2] it was 80%; in assay [3], 80%; in assay [4], 80%; in the assay with Setaria faberi (SETFA) [5], 50%; in the assay on Lolium perenne (LOLPE) [6], 70%. Besides, the pest or weed control at 250 g/ha was determined as 10% in assay [7]; 70% with Avena fatua (AVEFA) [8]; 80% in assay [9]; 80% in assay [10]; 20% with Setaria faberi (SETFA) [11]; 100% with Lolium perenne (LOLPE) [12].
For the compound `CC[C@]12CC[C@H](O1)[C@@H]1C(=O)C(c3c(C)cc(C)cc3C)=C(O)[C@@H]12` [Example T52], the pest or weed control at 125 g/ha in assay [1] was 80%; in the assay with Avena fatua (AVEFA) [2] it was 70%; in assay [3], 100%; in assay [4], 60%; in the assay with Setaria faberi (SETFA) [5] it was 80%; with Lolium perenne (LOLPE) [6], 70%. The pest or weed control at 250 g/ha in assay [7] was 90%; with Avena fatua (AVEFA) [8] it was 30%; in assay [9] it was 100%; in assay [10] it was 40%; in the assay on Setaria faberi (SETFA) [11], 90%; in the assay with Lolium perenne (LOLPE) [12], 100%.
As for `Cc1cc(C)c(C2=C(O)[C@@H]3[C@@H]4O[C@@H](C[C@H]4c4ccccc4)[C@@H]3C2=O)c(C)c1` [Example T56], the pest or weed control at 125 g/ha stood at 70% in assay [1]; 50% in the assay with Avena fatua (AVEFA) [2]; 100% in [3]; 100% in assay [4]; 60% in the assay on Setaria faberi (SETFA) [5]; 80% with Lolium perenne (LOLPE) [6]. Besides, the pest or weed control at 250 g/ha in assay [7] turned out to be 70%; in the assay with Avena fatua (AVEFA) [8] it was 60%; in assay [9], 100%; in assay [10] it was 100%; in the assay with Setaria faberi (SETFA) [11], 70%; in the assay on Lolium perenne (LOLPE) [12], 100%.
On to `Cc1cc(C)c(C2=C(O)[C@H]3[C@@H](C2=O)[C@@H]2C=C(CO)[C@@]3(C)O2)c(C)c1` [Example T58], for which the pest or weed control at 125 g/ha in assay [1] was determined as 40%; in the assay with Avena fatua (AVEFA) [2], 10%; in [3] it was 30%; in [4] it was 0%; with Setaria faberi (SETFA) [5], 30%; with Lolium perenne (LOLPE) [6], 0%. In addition, the pest or weed control at 250 g/ha in [7] came to 0%; in the assay on Avena fatua (AVEFA) [8], 10%; in [9], 60%; in assay [10], 0%; with Setaria faberi (SETFA) [11], 0%; in the assay on Lolium perenne (LOLPE) [12] it was 0%.
Turning to `CCC(=O)OC[C@]12C=C[C@H](O1)[C@@H]1C(=O)C(c3c(C)cc(C)cc3C)=C(O)[C@@H]12` [Example T59], the pest or weed control at 125 g/ha came to 80% in assay [1]; 40% with Avena fatua (AVEFA) [2]; 80% in [3]; 50% in assay [4]; 70% with Setaria faberi (SETFA) [5]; 0% in the assay with Lolium perenne (LOLPE) [6]. In addition, the pest or weed control at 250 g/ha in assay [7] was 50%; with Avena fatua (AVEFA) [8], 20%; in assay [9], 30%; in assay [10] it was 10%; in the assay with Setaria faberi (SETFA) [11], 40%; in the assay on Lolium perenne (LOLPE) [12], 30%.
With `CC1=C2CCC(C)C[C@@]23O[C@@H]1C1C(=O)C(c2c(C)cc(C)cc2C)=C(O)C13` (stereo partly drawn) [Example T60], the pest or weed control at 125 g/ha in [1] was 50%; with Avena fatua (AVEFA) [2], 0%; in assay [3], 0%; in assay [4], 10%; in the assay with Setaria faberi (SETFA) [5], 40%; with Lolium perenne (LOLPE) [6] it was 0%. For the same compound, the pest or weed control at 250 g/ha in assay [7] turned out to be 30%; with Avena fatua (AVEFA) [8], 40%; in assay [9] it was 30%; in [10], 0%; in the assay on Setaria faberi (SETFA) [11], 10%; with Lolium perenne (LOLPE) [12], 10%.

These data come from patent US8754242B2, “Herbicides” (Syngenta Crop Protection LLC, priority 2007, dated 2014).
